Laboratory results as given in patent US9012435B2, “Glucocorticoids attached to nitrate esters via an aromatic linker in position 21 and their use in ophthalmology” (Nicox S.A., priority 2008, dated 2015).

Key:
[1] = system: isolated rabbit thoracic aorta preparations; assay: Assay on vascular tone (vasorelaxation of methoxamine-precontracted aortic rings); settings: rabbit aortic rings precontracted with methoxamine 3 μM
Experimental: The ability of the compounds of the invention to induce vasorelaxation in comparison to precursor compounds was tested in vitro in isolated rabbit thoracic aorta preparations (Wanstall J. C. et al., Br. J. Pharmacol., 134:463-472, 2001). Male New Zealand rabbits (1,8-2 Kg) were used. The animals were anaesthetized with sodium thiopental (50 mg/kg, iv), sacrificed by exsanguinations and then the thorax was opened and the aorta dissected. The aortas were placed immediately in Krebs-HEPES buffer (pH 7.4; composition mM: NaCl 130.0, Kcl 3.7, […] 14.9, KH2PO4 1.2, MgSO4.7H2O 1.2, Glucose 11.0, HEPES 10.0, CaCl2.2H2O 1.6) and cut into ring segments (4-5 mm in length). Each ring was placed in a 5 ml tissue bath filled with Krebs-HEPES buffer (37° C.) aerated with 95% O2 and 5% CO2 and was then attached to a force transducer (Grass FT03), connected to a BIOPAC MP150 System for measurement of the isometric tension^2. The preparations were allowed to equilibrate for 1 h at a resting tension of 2 g with changes of the buffer every 15 minutes and then stimulated by exposure to 90 mM KCl (3 times) with intervening washings. After equilibration, the rings were precontracted submaximally with methoxamine (3 μM) and, when the contraction reach a steady state a cumulative concentration-response curve to the test compounds was obtained. The time intervals between doses were based on the time needed to reach a full a steady state response.
Responses to test compounds were expressed as a percentage of residual contraction and plotted against concentration of test compound. EC50 values (where EC50 is the concentration producing 50% of the maximum relaxation to the test compound) were interpolated from these plots.

[2] = system: VEGF-induced leakage rat model; assay: VEGF-induced retinal vascular leakage rat model (Evans blue); assay type: in vivo; settings: 25 μg/eye intravitreal, VEGF 100 ng/eye, 18 hours after injection
Experimental: Pupils were dilated with 1% topical cyclopentolate hydrochloride to see the needle to guide the intravitreal injection. Recombinant rat vascular endothelial growth factor (VEGF; 100 ng/eye) or VEGF at 100 ng/eye plus test compounds were prepared in 0.5% carboxymethyl cellulose (CMC) in sterile saline and was injected into the vitreous with a 30-gauge needle (Xu, Q., et al. Invest. Ophthalmol. Vis. Sci., 42:789-794, 2001). The compounds of the invention were compared to corresponding steroid cores at equimolar doses. […] Control animals received vehicle. Compound (18) was similarly dosed alongside triamcinolone acetonide for comparison.
Retinal vascular leakage was measured as described previously (Xu, Q., et al. Invest. Ophthalmol. Vis. Sci., 42:789-794, 2001). After about 18 hours post injection of test compounds, rats were anesthetized with ketamine (80 mg/kg) and xylazine (4 mg/kg) IP. Then 45 mg/kg Evans blue (EB) was injected into the jugular vein. The dye was allowed to circulate for 2 hours. The chest cavity was opened and rats then perfused with 1% formalin in 0.5 M citrate buffer (pH 3.5, 37° C.) through the left ventricle. Retinas were carefully dissected from enucleated eyes, placed in pre-weighed Eppendorf tubes, dried in speed vacuum overnight and dry weights recorded. Evans blue was extracted by incubating each retina in 120 μl formamide for 18 hours at 70° C., centrifuged for 2 hours at 6000 rpm. Absorbance of 60 μl of extract was measured at 620 nm and background absorbance was determined at 740 nm. Net absorbance was calculated by subtracting the background 740 nm from that at 620 nm. Measurement of a standard curve of Evans blue in formamide was also done and Evans blue leakage expressed as μl/g/h was calculated as shown below: [EB(ng/ml)×120 (μl)×1000]/[dry weight retina (mg)×circulation time (h)×plasma EB(ng/ml)×100]

ophthalmic artery = assay: Ocular haemodynamics (Color Doppler Imaging, Pourcelot Resistance Index) in ET-1 induced ischemia; assay type: in vivo, rabbit
Experimental: Haemodynamic evaluations were performed using an eco-color-doppler DynaView TM II SSD-1700 (Aloka Holding Europe AG, Milan, Italy). All animals underwent Color Doppler Imaging (CDI) investigation before ET-1 injection (T0), before the start of drug instillation (T2) and at the end of the drug treatment (T6). Special attention was devoted to the evaluation of ophthalmic and ciliary artery circulation. Blood flow velocities were measured for each vessel and the Pourcelot Resistance Index (RI) was calculated (Galassi F. et al., Acta Opht. Scand Suppl. (2000) 37-38).

TNFα = TNFα content in aqueous humor (ELISA), ET-1 induced ischemia; assay type: in vivo, rabbit; settings: ET-1 treated rabbits; 0.5 mg (equivalent)/eye IVT
Experimental: (§1) Aqueous humor samples were withdrawn from both anterior and posterior chamber fluids of each eye before ET-1 administration (T0), before the administration of Compound (1) or fluorocinolone acetonide (T2), and at the end of treatments (T6). The same volume of saline were reintroduced every time. The aqueous humor samples were immediately frozen at −80° C. until use.
(§2) Tumor necrosis factor (TNFα) and interleukin 6 (IL-6) were determined in aqueous humor with a commercial kit using an ELISA method (Amersham Pharmacia Biotech). The minimum detectable concentrations were 0.10 pg/ml for IL-6 and TNFα. The interassay coefficient of variation was 0.7% for all assays.

VEGF = VEGF content in aqueous humor, ET-1 induced ischemia; assay type: in vivo, rabbit; settings: ET-1 treated rabbits; 0.5 mg (equivalent)/eye IVT
IL-6 = IL-6 content in aqueous humor (ELISA), ET-1 induced ischemia; assay type: in vivo, rabbit; settings: ET-1 treated rabbits; 0.5 mg (equivalent)/eye IVT
Experimental: as §1, §2

retinal tissue = assay: Retina protection: morphological analysis, ET-1 induced ischemia; assay type: in vivo, rabbit; settings: long term ET-1 treatment; 0.5 mg (equivalent)/eye IVT
Experimental: The eyes of each animal was enucleated, cornea and crystalline were removed and the eyes was paraformaldehyde-fixed. Then samples were dehydrated with increasing alcohol concentration (50°-75°-95°-100°). After 95° alcohol treatment, the eyes were divided into two parts following a longitudinal plain from cornea to insertion of optical nerve. Thus the samples were paraffin-embedded. Section 8 μm thick were stained with Haematoxylin-Eosin. Microscopical fields were registered by digitizing camera applied a light microscope with a 20× and 40× objective. On the digitized images was performed a morphological analysis of retinal tissue.

[3] = system: New Zealand White rabbits; assay: Electroretinogram (ERG) in ET-1 induced ischemia; settings: after ET-1 treatment; 0.5 mg (equivalent)/eye IVT
Experimental: Twenty adult male New Zealand Albino rabbits weighing 2-2.5 Kg were used for the experiments. The animals were divided in two groups for the specific treatment chosen. The experimental procedures were conform to those of the Association for Research in Vision and Ophthalmology Resolution on the use of animals and in agreement with the Good Laboratory Practice for the use of animals and were conducted upon authorization of Italian regulation on protection of animals used for experimental and other scientific purpose (DM 116/1992) as well as with the European Union Regulations (OJ of ECL 358/1, Dec. 12, 1986). The rabbits were kept in individual cages, food and water was provided ad libitum. […]
The Electroretinogram (ERG) was performed in basal condition (T0), before the start of drug treatment (T2) and at the end of drug treatment (T6). […] The eyes were dilated by topical application of tropicamide (1%), adapted to darkness for at least 2 hours, and standard ERGs recorded in both eyes using corneal electrodes. […] The ERG signals were recorded using Retimax (CSO, Florence, Italy). The dark-adapted scotopic response (rod response) and scotopic flash response (photopic erg cone), were recorded. […] An average of three separate ERGs was determined for each eye. The amplitude (uV) of a- and b-waves were calculated for each step. […]

[4] = system: New Zealand White rabbits; assay: Intraocular pressure in endothelin-1 (ET-1) induced ischemia
Experimental: Twenty adult male New Zealand Albino rabbits weighing 2-2.5 Kg were used for the experiments. The animals were divided in two groups for the specific treatment chosen. […] The rabbits were kept in individual cages, food and water was provided ad libitum. The animals were maintained on a 12-12 h light/dark cycle in a temperature controlled room (22°-23° C.).
Ischemia model of optic injury was obtained throughout by injection, twice a week, for 6 weeks, of endothelin-1 (ET-1) 250 nM, 500 μl of sterile saline, into the posterior vitreous body of both eyes, using a lachrymal cannula, under general anesthesia produced by tiletamine plus zolazepam (Zoletil 100, 0.05 mg/kg) plus xilazine (Xilor 2%, 0.05 ml/kg) i.m.
Fluocinolone acetonide (FC) (0.5 mg/eye in 100 μl of vehicle) or Compound (1) (0.5 mg equivalent/eye in 100 μl of vehicle) were instilled intravitreally (IVT) two weeks after the start of ET-1 treatment (T2), in one eyes, the same volume of vehicle was instilled in the other eye.
Intraocular pressure (TOP) was measured twice a using a Tono-Pen XL (Medtronic Solan. USA) as described by Maren's group (Exp. Eye Res. (1992) 55: 73-79; Exp. Eye Res. (1993) 57: 67-78) with a two-point standard pressure measurement.

Brown Norway rats = assay: Steroid-induced intraocular pressure (IOP) elevation in rats after intravitreal injection; settings: for IOP increase: one week after injection, baseline 18 mm Hg
Source text: Male Brown Norway rats (250-275 g; Charles River laboratory) were acclimated for a week before IOP measurements. Baseline IOP measurements with Tonolab Tonometer (Tiolat Inc) were done in conscious rats (Pease, M. E., et al J. Glaucoma, 15:512-519, 2006) before intravitreal injection of test compounds. Then the rats were anesthetized with isoflurane inhalation and a drop of 0.5% tetracaine was topically applied on the eyes. Pupils were dilated with 1% topical cyclopentolate hydrochloride and 2.5% phenylephrine HCl to see the needle to aim the intravitreal injection of test compounds. […] For example, to compare to fluocinolone acetonide at both 25 and 50 μg/eye, compound (1) was dosed at 42.4 and 84.7 μg/eye, respectively. The des-nitro analog of compound (1) was dosed at 39.1 μg/eye (equivalent for 25 μg FC). Control animals received vehicle.
Five measurements were averaged for each time point. IOP measurements were taken at one and two weeks after intravitreal injection of test compounds.

## CC1(C)O[C@@H]2C[C@H]3[C@@H]4C[C@H](F)C5=CC(=O)C=C[C@]5(C)[C@@]4(F)[C@@H](O)C[C@]3(C)[C@]2(C(=O)CO)O1 [FC, Fluocinolone acetonide]
[1]
  EC50 (concentration producing 50% of the maximum relaxation): no effect
[2]
  inhibition of VEGF-induced leakage: 86.1%
Ophthalmic artery; After 2 weeks (before drug instillation, T2)
  Resistence Index: 0.45 ± 0.06
Ophthalmic artery; After 6 weeks (end of drug treatment), 0.5 mg (equivalent)/eye IVT
  Resistence Index: 0.60 ± 0.04
Ophthalmic artery; Basal
  Resistence Index: 0.45 ± 0.06
TNFα
  TNFα content in aqueous humor: 20.76 ± 1.74 pg/mL
VEGF
  VEGF content in aqueous humor: 114.58 ± 5.61 pg/mL
IL-6
  IL6 content in aqueous humor: 16.82 ± 0.98 pg/mL
Retinal tissue
  ET-1 induced morphological changes of retinal tissue: not effective
[3]
  Photopic erg cone (amplitude): 136.34 ± 11.98 μV
[4]; ET-1, 0.5 mg (equivalent)/eye IVT given at T2
  IOP: 13.00 ± 2.83 mmHG
[4]; I week, 0.5 mg (equivalent)/eye IVT, ET-1 ischemia
  IOP: 15.50 ± 0.71 mmHG
[4]; II week, 0.5 mg (equivalent)/eye IVT, ET-1 ischemia
  IOP: 19.00 ± 0.00 mmHG
[4]; III week, 0.5 mg (equivalent)/eye IVT, ET-1 ischemia
  IOP: 19.00 ± 1.41 mmHG
[4]; IV week, 0.5 mg (equivalent)/eye IVT, ET-1 ischemia
  IOP: 20.80 ± 0.71 mmHG
[4]; V week, 0.5 mg (equivalent)/eye IVT, ET-1 ischemia
  IOP: 22.20 ± 0.00 mmHG
[4]; VI week, 0.5 mg (equivalent)/eye IVT, ET-1 ischemia
  IOP: 21.10 ± 0.00 mmHG
[4]; basal, 0.5 mg (equivalent)/eye IVT given at T2
  IOP: 13.50 ± 0.17 mmHG
Brown Norway rats; 25 μg/eye intravitreal
  IOP compared to compound (1) at 42.4 μg/eye (FIG. 4): increase in IOP
  IOP increase: 4 mm Hg
Brown Norway rats; 50 μg/eye intravitreal
  IOP increase: 3 mm Hg
Brown Norway rats; 25 and 50 μg/eye intravitreal, two weeks after injection
  IOP increase after two weeks: maintained
